# From patent US5976830A, “Methods of producing doxorubicin” (priority 1996, dated 1999)
# System: Streptomyces lividans TK24(pANT195)
# Assay: Viability of doxA-transformed culture incubated with daunomycin
# Type: cell-based
# Procedure: Cultures of S. lividans TK24 containing plasmid pANT195 and control cultures of S. lividans TK24 containing plasmid pANT849 were grown on R2YE agar medium containing 10 μg/ml of thiostrepton in standard 100 mm×15 mm plastic petri dishes for 5 days at 30° C., at which time the entire cultures had sporulated. The spores from one entire petri plate were used to inoculate 50 ml of modified YEME medium in 250 ml erlenmeyer flasks. Then 10 μg/ml thiostrepton in DMSO were added to the medium. The thiostrepton was added as selective pressure to maintain the plasmids. The cultures were grown for 48 hours at 30° C. with rotary shaking at 250 rpm, one inch throw on the shaker. After 48 hours, a 1.5 ml sample was removed for plasmid analysis to ensure the presence and size of the insert DNA containing the doxA gene using a "mini-prep" procedure according to Carter, M. J., and I. D. Milton, (1993), "An Inexpensive and Simple Method for DNA Purification on Silica Particles," Nucleic Acids Res., Vol. 21, page 1044. Restriction endonuclease digestion with BspEI and agarose gel electrophoresis generated 1.7 kbp, 2.2 kbp, and 3.14 kbp fragments which indicated an intact plasmid and insert. Then a 10 μL solution containing 100 μg of filter sterilized daunomycin-HCl in distilled water was added to the cultures for a final concentration of 2.0 μg of daunomycin per ml of culture broth. Incubation was continued for 72 hours.
# The procedure of Example 1 was repeated, with the following exceptions. The cultures were grown at 28° C. rather than 30° C., for 48 hours. After 48 hours of growth, 500 μg of daunomycin-HCl were added to the cultures for a final concentration of 10.0 μg/ml of daunomycin followed by further incubation for 36 hours, instead of 72 hours.
# A 50 ml culture of Streptomyces lividans TK24(pANT195) culture was prepared as in Example 1. […] The cultures were incubated for 48 hours and then extracted as described in Example 1 and analyzed by HPLC and TLC. […]
compound,measurement,setting,value
COc1cccc2c1C(=O)c1c(O)c3c(c(O)c1C2=O)C[C@@](O)(C(C)=O)C[C@@H]3O[C@H]1C[C@H](N)[C@H](O)[C@H](C)O1 [daunomycin],state of the cultures after incubation with daunomycin,"2 μg/ml of daunomycin, cultures of Examples 1 and 2",fully viable
same,toxicity to the host,"16.7 μg/ml of daunomycin, about 8-fold concentrated mycelia in MOPS buffer pH 7.2 (Example 10)",toxic to the host
same,state of the doxA transformed culture at the end of incubation,"22.2 μg/ml daunomycin, 48 hours, 28° C., YEME medium (Example 3)",virtually dead
